Measured values published in patent US6355799B1, “Substituted benzene compounds, process for their preparation, and herbicidal and defoliant compositions containing them” (ISK Americas Incorporated, priority 1997, dated 2002).

How the values were obtained:
Assay type in all cases: in vivo
[1] = tested on: redroot pigweed (Amaranthus retroflexus, AMARE); experiment: Pre-emerge test, greenhouse herbicide activity screening; conditions: pre-emerge, 14 days after application, scale 0-100
Procedure, shortened: (§1)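 Compounds in acetone were track-sprayed at 187 l/ha, 15–1000 g ai/ha, onto sandy loam pots. Pre-emerge seeds were sown one day before spraying, with surface watering afterwards. Post-emerge plants were at the 2–3 leaf stage and sprayed with 0.25% v/v non-ionic surfactant. Injury was rated 0–100 at 14 days.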

[2] = tested on: upland rice (Oryza sp., var. Tebonnet, RICE); experiment: Post-emerge test, crop safety; conditions: post-emerge, 14 days after application, rating scale 0-100
Procedure, shortened: (§2)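 Sandy loam pots; pre-emerge: sown 1 d pre-spray, surface-watered after, then bottom-watered. Post-emerge: sown 8–21 d before, 2–3 leaf stage, + 0.25% v/v NIS, bottom-watered. Acetone, 187 l/ha track spray, 15–1000 g ai/ha. 0–100 injury score, day 14.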

[3] = tested on: field corn (Zea mays L., var. Dekalb 535, CORN); experiment: Post-emerge test, crop safety; conditions: post-emerge, 14 days after application, rating scale 0-100
Procedure, shortened: as §2

[4] = tested on: johnsongrass (Sorghum halepense, SORHA); experiment: Pre-emerge test, greenhouse herbicide activity screening; conditions: pre-emerge, 14 days after application, scale 0-100
Procedure, shortened: as §2

[5] = tested on: velvetleaf (Abutilon theophrasti, ABUTH); experiment: as above; conditions: pre-emerge, 14 days after application, scale 0-100
Procedure, shortened: as §2

[6] = tested on: lambsquarters (Chenopodium album, CHEAL); experiment: as above; conditions: pre-emerge, 14 days after application, scale 0-100
Procedure, shortened: as §2

[7] = tested on: barnyardgrass (Echinochloa crus-galli, ECHCG); experiment: as above; conditions: pre-emerge, 14 days after application, scale 0-100
Procedure, shortened: as §2

[8] = tested on: large crabgrass (Digitaria sanguinalis, DIGSA); experiment: as above; conditions: pre-emerge, 14 days after application, scale 0-100
Procedure, shortened: as §2

[9] = tested on: green foxtail (Setaria viridis, SETVI); experiment: as above; conditions: pre-emerge, 14 days after application, scale 0-100
Procedure, shortened: as §2

[10] = tested on: sicklepod (Cassia obtusifolia, CASOB); experiment: as above; conditions: pre-emerge, 14 days after application, scale 0-100
Procedure, shortened: as §2

[11] = tested on: ivyleaf morningglory (Ipomoea hederacea, IPOHE); experiment: as above; conditions: pre-emerge, 14 days after application, scale 0-100
Procedure, shortened: as §2

[12] = tested on: upland rice (Oryza sp., var. Tebonnet, RICE); experiment: Pre-emerge test, crop safety; conditions: pre-emerge, 14 days after application, scale 0-100
Procedure, shortened: (§3)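 Rating: 0–100 visual injury, 14 DAA. Application: acetone, 187 l/ha, 15–1000 g ai/ha, flat-fan track sprayer with nozzle 40–45 cm above soil or canopy. Post-emerge runs used 0.25% v/v surfactant on 2–3 leaf plants.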

[13] = tested on: field corn (Zea mays L., var. Dekalb 535, CORN); experiment: Pre-emerge test, crop safety; conditions: pre-emerge, 14 days after application, scale 0-100
Procedure, shortened: as §3

[14] = tested on: johnsongrass (Sorghum halepense, SORHA); experiment: Post-emerge test, greenhouse herbicide activity screening; conditions: post-emerge, 63 g ai/ha, 14 days after application, rating scale 0-100
Procedure, shortened: as §1

[15] = tested on: velvetleaf (Abutilon theophrasti, ABUTH); experiment: as above; conditions: post-emerge, 14 days after application, rating scale 0-100
Procedure, shortened: as §1

[16] = tested on: lambsquarters (Chenopodium album, CHEAL); experiment: as above; conditions: post-emerge, 14 days after application, rating scale 0-100
Procedure, shortened: as §1

[17] = tested on: redroot pigweed (Amaranthus retroflexus, AMARE); experiment: as above; conditions: post-emerge, 14 days after application, rating scale 0-100
Procedure, shortened: as §1

[18] = tested on: barnyardgrass (Echinochloa crus-galli, ECHCG); experiment: as above; conditions: post-emerge, 14 days after application, rating scale 0-100
Procedure, shortened: as §1

[19] = tested on: large crabgrass (Digitaria sanguinalis, DIGSA); experiment: as above; conditions: post-emerge, 14 days after application, rating scale 0-100
Procedure, shortened: as §1

[20] = tested on: green foxtail (Setaria viridis, SETVI); experiment: as above; conditions: post-emerge, 14 days after application, rating scale 0-100
Procedure, shortened: as §1

[21] = tested on: sicklepod (Cassia obtusifolia, CASOB); experiment: as above; conditions: post-emerge, 14 days after application, rating scale 0-100
Procedure, shortened: as §1

[22] = tested on: ivyleaf morningglory (Ipomoea hederacea, IPOHE); experiment: as above; conditions: post-emerge, 14 days after application, rating scale 0-100
Procedure, shortened: as §1

Structure (SMILES): COc1c(C#N)cc(F)c(-n2c(=O)cc(C(F)(F)F)n(C)c2=O)c1NC(=O)C=Cc1ccccc1 [2-179]
- phytotoxicity rating AMARE ([1]; 63 g ai/ha): 100
- phytotoxicity rating AMARE ([1]; 250 g ai/ha): 100
- RICE phytotoxicity rating (crop damage) ([2]; 63 g ai/ha): 30
- RICE phytotoxicity rating (crop damage) ([2]; 250 g ai/ha): 60
- CORN phytotoxicity rating (crop damage) ([3]; 63 g ai/ha): 15
- CORN phytotoxicity rating (crop damage) ([3]; 250 g ai/ha): 15
- phytotoxicity rating SORHA ([4]; 63 g ai/ha): 30
- phytotoxicity rating SORHA ([4]; 250 g ai/ha): 95
- phytotoxicity rating ABUTH ([5]; 63 g ai/ha): 100
- phytotoxicity rating ABUTH ([5]; 250 g ai/ha): 100
- phytotoxicity rating CHEAL ([6]; 63 g ai/ha): 100
- phytotoxicity rating CHEAL ([6]; 250 g ai/ha): 100
- phytotoxicity rating ECHCG ([7]; 63 g ai/ha): 20
- phytotoxicity rating ECHCG ([7]; 250 g ai/ha): 85
- phytotoxicity rating DIGSA ([8]; 63 g ai/ha): 20
- phytotoxicity rating DIGSA ([8]; 250 g ai/ha): 95
- phytotoxicity rating SETVI ([9]; 63 g ai/ha): 50
- phytotoxicity rating SETVI ([9]; 250 g ai/ha): 90
- phytotoxicity rating CASOB ([10]; 63 g ai/ha): 30
- phytotoxicity rating CASOB ([10]; 250 g ai/ha): 100
- phytotoxicity rating IPOHE ([11]; 63 g ai/ha): 60
- phytotoxicity rating IPOHE ([11]; 250 g ai/ha): 70
- phytotoxicity rating RICE (crop damage) ([12]; 63 g ai/ha): 20
- phytotoxicity rating RICE (crop damage) ([12]; 250 g ai/ha): 60
- phytotoxicity rating CORN (crop damage) ([13]; 63 g ai/ha): 0
- phytotoxicity rating CORN (crop damage) ([13]; 250 g ai/ha): 10
- SORHA phytotoxicity rating [14]: 10
- ABUTH phytotoxicity rating ([15]; 63 g ai/ha): 100
- ABUTH phytotoxicity rating ([15]; 250 g ai/ha): 100
- CHEAL phytotoxicity rating ([16]; 63 g ai/ha): 80
- CHEAL phytotoxicity rating ([16]; 250 g ai/ha): 100
- AMARE phytotoxicity rating ([17]; 63 g ai/ha): 100
- AMARE phytotoxicity rating ([17]; 250 g ai/ha): 100
- ECHCG phytotoxicity rating ([18]; 63 g ai/ha): 70
- ECHCG phytotoxicity rating ([18]; 250 g ai/ha): 50
- DIGSA phytotoxicity rating ([19]; 63 g ai/ha): 0
- DIGSA phytotoxicity rating ([19]; 250 g ai/ha): 50
- SETVI phytotoxicity rating ([20]; 63 g ai/ha): 30
- SETVI phytotoxicity rating ([20]; 250 g ai/ha): 55
- CASOB phytotoxicity rating ([21]; 63 g ai/ha): 80
- CASOB phytotoxicity rating ([21]; 250 g ai/ha): 100
- IPOHE phytotoxicity rating ([22]; 63 g ai/ha): 80
- IPOHE phytotoxicity rating ([22]; 250 g ai/ha): 100
